Assay results: patent US20150065556A1, “THERAPEUTIC TARGETS FOR MITOCHONDRIAL DISORDERS” (Whitehead Institute for Biomedical Research, priority 2013, published 2015)
Entries after “also recorded” stand apart in the source; their conditions may differ.

Legend:
KBM7 cells [1] = test: Viability/proliferation of wild type and ATPIF1 null KBM7 cells treated with mitochondrial poisons (7-AAD, FACS); format: cell-based, human; conditions: for resistance of ATPIF1 null KBM7 cells to the poison: viability four days later, FIG. 1C-D, FIG. 2; for viability of ATPIF1 KO vs WT KBM7 cells in response to ETC inhibitors: 7AAD, FIG. 8A
Description: In order to identify potential drug targets for treatment of mitochondrial disorders, we decided to use inhibitors of oxidative phosphorylation (OXPHOS) to model mitochondrial diseases and search for genes, loss-of-function of which can confer resistance to mitochondrial dysfunction caused by the poison. To that end, we explored use of a screening platform based on gene inactivation in human cells using insertional mutagenesis that has recently been developed using the KBM7 CML cell line, which is haploid for all chromosomes except chromosome 8 (5). In this system, insertional mutagenesis is accomplished using a gene trap vector. […]
For the viability assays described in this Example and Example 2, 200,000 cells were used for each sample. Cells were treated with the desired concentration of drug and viability was assessed four days later using 7-AAD and FACS analysis.
(§1) Suspension cells were kept on ice, then spun at 4000 rpm for 5 minutes at 4° C. in a table-top microcentrifuge, supernatant aspirated, cells washed once with ice-cold PBS, resuspended in ice-cold PBS with 2 ug/mL 7-AAD viability dye, incubated for 5 minutes on ice, and analyzed by FACS. For adherent cells, the overlying media and PBS used for pre-trypsinization washes was collected and combined with the suspension of trypsinized cells to gather any dead cells that may have detached into the media. The cell suspensions were kept on ice, spun at 1500 rpm for 5 minutes at 4° C. in a swinging bucket centrifuge, supernatant aspirated, cells washed once with ice-cold PBS, resuspended in ice-cold PBS with 2 ug/mL 7-AAD viability dye, incubated for 5 minutes on ice, and analyzed by FACS. Viability was assessed by 7-AAD exclusion. For HeLa, SH-SY5Y, and Malme-3M cells, 500-2,000 cells were seeded per well of white, clear-bottom 96-well plates (Greiner Bio-One), treated with drugs, and then analyzed using CellTiter-Glo according to the manufacturer's instructions (Promega). For primary hepatocytes, 100,000 cells were seeded per well of a 24-well TPP plate (Light Labs), treated with antimycin, and then analyzed using CellTiter-Glo.

KBM7 cells [2] = test: ddI-induced mtDNA depletion in WT and IF1 KO KBM7 cells (proliferation, mtDNA copy number, ATPIF1 protein); format: cell-based, human
Description: mtDNA was extracted using a QiaAmp DNA Mini Kit (Qiagen) and primers specific to the mitochondrial gene ND1 and the nuclear gene Actb were used in conjunction with a SyBr Green Kit (AB) according to the manufacturer's instructions. The ratio of ND1 copies to Actb copies was used to assess the relative mtDNA/nuclear DNA copy numbers between different samples. In some experiments primers targeting the mitochondrial gene ND1 and the nuclear gene RUNX2 were used to assess mtDNA copy number by normalizing ct values of ND1 to those of RUNX2: ND1_F, CCCTAAAACCCGCCACATCT (SEQ ID NO. 14); ND1_R, GAGCGATGGTGAGAGCTAAGGT (SEQ ID NO. 15); RUNX2_F, CGCATTCCTCATCCCAGTATG (SEQ ID NO. 16); RUNX2_R, AAAGGACTTGGTGCAGAGTTCAG (SEQ ID NO. 17). Relative differences between samples were determined using the comparative Ct method.
KBM7 cells were cultured in IMDM supplemented with 10% IFS and penicillin/streptomycin, except for studies using tigecycline in which they were cultured in RPMI-1640. SH-SY5Y, HeLa, Malme-3M cells were cultured in DMEM supplemented with 10% FBS and penicillin/streptomycin. HeLa WT, HeLa ρ^0, and KBM7 cells used for ddI experiments were grown in DMEM supplemented with 10% FBS, penicillin/streptomycin, and 100 μg/mL uridine. Primary hepatocytes were cultured in Medium 199 supplemented with 10% FBS, penicillin/streptomycin, and GlutaMAX. KBM7, HeLa WT, and HeLa ρ^0 cells stably overexpressing ATPIF1 (WT or E55A) were generated via infection with retroviruses and selected with blasticidin (10 μg/mL) for three days. Malme-3M cells stably overexpressing RAP2A or ATPIF1 were generated by infection with lentiviruses expressing the corresponding cDNAs, followed by selection with puromycin (2 μg/mL) for three days. KBM7, SH-SY5Y, and HeLa cells expressing shLuc or shATPIF1 were generated by infection with lentiviruses expressing the corresponding shRNAs. All cells were infected with spin-infection using a 30 minute spin at 2,250 rpm in media containing polybrene (4 μg/mL), followed by selection one day later.
Failure to maintain proper amounts of the mitochondrial genome is a distinctive feature of a class of severe respiratory chain disorders known as mtDNA depletion syndromes (Lee and Sokol, 2007). Because of our interest in ATPIF1 inhibition as a potential strategy for ameliorating severe ETC dysfunction, we asked if loss of ATPIF1 alone was sufficient to improve cell viability during progressive mtDNA depletion. To do this, we exposed WT and IF1 KO KBM7 cells for 50 days to the drug 2′,3′-dideoxyinosine (ddI), an inhibitor of mtDNA replication, which depletes cells of their mtDNA (Lewis et al., 2003; Walker et al., 2002).

KBM7 cells [3] = test: Cellular ATP (CellTiterGlo) in WT and ATPIF1 KO KBM7 cells; format: cell-based, human
Description: (§2) Equal numbers of cells were plated and ATP was determined using a CellTiterGlo assay (Promega) according to the manufacturer's instructions.

KBM7 cells [4] = test: Mitochondrial membrane potential (TMRM staining, FACS) in WT and ATPIF1 KO KBM7 cells; format: cell-based, human; conditions: for rescue by loss of ATPIF1 of the loss of mitochondrial membrane potential caused by the poison: FIG. 4, TMRM
Description: Membrane potential was assessed using tetramethyl rhodamine methyl ester (TMRM). For the TMRM time course: 200,000 cells were used for each time point. Cells were treated with 121 uM antimycin and incubated in 25 nM TMRM (final concentration) in IMDM 20 minutes from the end of their time point at 37° C. and then analyzed by FACS analysis. Dead cells were excluded using 7-AAD.
(§3) 200,000 cells were stained with 25 nM TMRM dye (Invitrogen) in parent media of cells. In the case of adherent cells, 10 uM verapamil (Sigma-Aldrich) was added to help retention of the dye. For suspension cells, the incubation of the dye was done for 30 minutes at 37° C., whereas for adherent cells, the incubation was done for 1 hour at 37° C. Suspension cells were kept on ice, then spun at 4000 rpm for 5 minutes at 4° C. in a table-top microcentrifuge, supernatant aspirated, cells washed once with ice-cold PBS, resuspended in ice-cold PBS with 2 ug/mL 7-AAD viability dye, incubated for 5 minutes on ice, and analyzed by FACS. Only 7-AAD negative live cells were analyzed. Adherent cells were first trypsinized, kept on ice, spun at 4000 rpm for 5 minutes at 4° C. in a table-top microcentrifuge, supernatant aspirated, cells washed once with ice-cold PBS, resuspended in ice-cold PBS with 2 ug/mL 7-AAD viability dye, incubated for 5 minutes on ice, and analyzed by FACS. Only 7-AAD negative live cells were analyzed.
(§4) FACS assays. For measurements of ΔΨm, 100,000 cells were incubated with TMRM (25 nM) and the indicated amounts of drugs for the indicated amounts of time before collection. For measurements of mitochondrial mass, 100,000 cells were incubated with MitoTracker Green FM (50 nM) for one hour. For primary hepatocytes, cells were assayed in suspension immediately after harvest from the liver and incubated with verapamil (20 μM) to facilitate retention of TMRM and MitoTracker Green FM signals. Afterwards, cells were collected by centrifugation, washed once with PBS, and resuspended in PBS with 7-AAD (2 μg/mL) for analysis. KBM7 cells and primary hepatocytes were centrifuged at 2000 rpm for 5 minutes and 500 rpm for 5 minutes at 4° C., respectively.

COX1 mutant cells = test: MMP and viability of cybrid cells with mtDNA from a patient with a deficiency in COX1; format: cell-based, human; conditions: FIG. 7E
Description: as §3
(§5) Suspension cells were kept on ice, then spun at 4000 rpm for 5 minutes at 4° C. in a table-top microcentrifuge, supernatant aspirated, cells washed once with ice-cold PBS, resuspended in ice-cold PBS with 2 ug/mL 7-AAD viability dye, incubated for 5 minutes on ice, and analyzed by FACS. […] Viability was assessed by 7-AAD exclusion. […]

[5] = test system: cybrid cells having mtDNA derived from a normal (WT) subject; test: MMP and viability of cybrid cells with mtDNA from a normal (WT) subject; format: cell-based, human; conditions: FIG. 7E
Description: as §3, §5

KBM7 cells [6] = test: Metabolite profiling of WT and IF1 KO KBM7 cells after antimycin treatment; format: cell-based, human; conditions: after 1 hour of antimycin treatment; FIG. 7D as printed
Description: 4 million KBM7 cells were centrifuged at 1500 rpm for 4 minutes at 4° C. in a swinging bucket centrifuge after the desired drug treatments. The supernatant was decanted and the cell pellet kept on dry ice. Each cell pellet was washed twice with ice-cold PBS. 3 mL of 80% ice-cold MeOH was then added to each pellet and the pellet vigorously resuspended. Samples were then submitted to the Broad Institute Metabolomics Platform for further processing and analysis.

Malme-3M cells = test: Viability of Malme-3M cells overexpressing ATPIF1 treated with antimycin (CellTiter-Glo); format: cell-based; conditions: antimycin for 4 days; FIG. 7G
Description: as §1, with “CellTiter-Glo. […]” for “CellTiter-Glo.”

primary hepatocytes = test: ATP, ΔΨm and viability of WT and ATPIF1−/− primary hepatocytes treated with antimycin; format: cell-based, mice
Description: as §2, §1
as §4, with “KBM7 cells and primary hepatocytes were centrifuged at 2000 rpm for 5 minutes and 500 rpm for 5 minutes at 4° C., respectively.” left out

[7] = initial days of ddI treatment (Early)

## N#CC(C#N)=NNc1ccc(OC(F)(F)F)cc1 [FCCP, carbonylcyanide p-trifluoromethoxyphenylhydrazone]
KBM7 cells [1]; 7-AAD
  resistance of ATPIF1 null KBM7 cells to the poison: resistant

## C[n+]1ccc(-c2ccccc2)cc1 [MPP+, 1-methyl-4-phenylpyridinium]
KBM7 cells [1]
  viability of ATPIF1 KO vs WT KBM7 cells in response to ETC inhibitors: cells lacking ATPIF1 have increased viability as compared to wild type cells

## O=C(CC(=O)C(F)(F)F)c1cccs1 [TTFA]
KBM7 cells [1]; 7-AAD
  resistance of ATPIF1 null KBM7 cells to the poison: resistant

## OC[C@@H]1CC[C@H](n2cnc3c(O)ncnc32)O1 [ddI, 2′,3′-dideoxyinosine]
KBM7 cells [2]; by about day 25 of ddI treatment (Middle)
  mtDNA of WT and ATPIF1_KO KBM7 cells: trace amounts of mtDNA
KBM7 cells [2]; ddI, Middle (days 19-34)
  proliferation of ATPIF1_KO vs WT KBM7 cells: significantly faster rate of proliferation
KBM7 cells [2]; [7]
  cell proliferation of WT and ATPIF1_KO KBM7 cells: decrease in cell proliferation
  mtDNA copy number of WT and ATPIF1_KO KBM7 cells: immediate decrease in mtDNA copy number
KBM7 cells [2]; long-term exposure to ddI, FIG. 8E
  ATPIF1 protein levels and activity of WT KBM7 cells: greatly reduced ATPIF1 protein levels and activity

## CC[C@H]1/C=C/C=C/C[C@@H](C)[C@H](O)[C@@](C)(O)C(=O)[C@@H](C)[C@H](O)[C@@H](C)C(=O)[C@@H](C)[C@H](O)[C@@H](C)/C=C/C(=O)O[C@@H]2[C@H](C)[C@H](CC1)O[C@]1(CC[C@H](C)[C@H](C[C@@H](C)O)O1)[C@H]2C [oligomycin]
KBM7 cells [3]; oligomycin added to antimycin
  ATP of antimycin-treated IF1 KO KBM7 cells on addition of oligomycin: completely prevents IF1 KO cells from rescuing their MMP and using ATP; also recorded: increased ATP levels
KBM7 cells [1]; oligomycin added to antimycin, 7-AAD, FIG. 7D
  survival of antimycin-treated IF1 KO KBM7 cells on addition of oligomycin: decreased survival
KBM7 cells [4]
  rescue by loss of ATPIF1 of the loss of mitochondrial membrane potential caused by the poison: not rescued
KBM7 cells [4]; oligomycin added to antimycin
  MMP (ΔΨm) of antimycin-treated IF1 KO KBM7 cells on addition of oligomycin: completely prevents IF1 KO cells from rescuing their MMP; also recorded: decreased ΔΨm
COX1 mutant cells
  MMP of cells having patient-derived (COX1 deficient) mtDNA: dramatic decrease in MMP
  viability of cells having patient-derived (COX1 deficient) mtDNA: kills the cells having patient-derived mtDNA
[5]
  MMP and viability of cells having mtDNA derived from healthy subjects (WT): not cells having mtDNA derived from healthy subjects

## C/C=C(\C)[C@H](O)[C@H](C)/C=C(C)/C=C/C/C(C)=C/Cc1nc(OC)c(OC)c(O)c1C [piercidin A, Piericidin A]
KBM7 cells [1]
  viability of ATPIF1 KO vs WT KBM7 cells in response to ETC inhibitors: cells lacking ATPIF1 have increased viability as compared to wild type cells
KBM7 cells [1]; 7-AAD
  resistance of ATPIF1 null KBM7 cells to the poison: resistant

## CN(C)c1cc(NC(=O)CNC(C)(C)C)c(O)c2c1C[C@H]1C[C@H]3[C@H](N(C)C)C(O)=C(C(N)=O)C(=O)[C@@]3(O)C(O)=C1C2=O [tigecycline]
KBM7 cells [1]
  viability of ATPIF1 KO vs WT KBM7 cells in response to ETC inhibitors: cells lacking ATPIF1 have increased viability as compared to wild type cells

## antimycin A
KBM7 cells [3]; FIG. 3A
  ATP levels of ATPIF1 null vs WT KBM7 cells following antimycin treatment: significantly lower levels of initial ATP compared to WT cells
KBM7 cells [3]; antimycin exposure, FIG. 7B
  ATP levels in IF1 KO KBM7 cells: decreased significantly
  ATP levels in WT KBM7 cells: not in WT cells
KBM7 cells [1]; antimycin A 121 μm, FIG. 1D
  proliferation of clone 18 (ATPIF1 null) KBM7 cells: clone 18 cells continue proliferating
  proliferation of wild type KBM7 cells: wild type cells cease proliferating
KBM7 cells [1]; 7-AAD
  resistance of ATPIF1 null KBM7 cells to the poison: marked resistance
KBM7 cells [6]
  glycolytic metabolites (DHAP, glyceraldehyde 3P, F6P), IF1 KO vs WT KBM7 cells: more depletion of glycolytic metabolites
KBM7 cells [4]
  rescue by loss of ATPIF1 of the loss of mitochondrial membrane potential caused by the poison: rescued (in part)
KBM7 cells [4]; antimycin exposure, FIG. 7B
  MMP in IF1 KO KBM7 cells: significant recovery in MMP after loss of MMP
  recovery of MMP in WT KBM7 cells: WT cells did not
Malme-3M cells
  sensitivity of Malme-3M cells overexpressing ATPIF1: increased their sensitivity to antimycin
Primary hepatocytes; antimycin 0.625 μM for 1.5 hours, FIG. 11B
  cellular ATP, ATPIF1−/− vs WT hepatocytes: greater decrease in cellular ATP
Primary hepatocytes; antimycin 1.25 μM for 2 days, FIG. 11D
  cell viability, ATPIF1−/− vs WT hepatocytes: increased cell viability relative to WT hepatocytes
Primary hepatocytes; antimycin 10 μM for 1.5 hours, FIG. 11C
  ΔΨm, ATPIF1−/− vs WT hepatocytes: greater increase in ΔΨm
